In ChEMBL document CHEMBL1159079, “Pharmacophore modeling and virtual screening for designing potential 5-lipoxygenase inhibitors” (Bioorg Med Chem Lett, 2010) one finds IC50 data, which are given here for 79 compounds.

The assay can be described thus: Inhibition of potato tuber 5LOX by polarographic method. Further details: species or system Solanum tuberosum.
`CCN(C)C(=O)c1cc(C(C)(C)C)c2c(c1)C(C)(C)CO2`: half-maximal inhibition (IC50) required 22000 nM.
Consider `O=C1NCCN(c2cccc([N+](=O)[O-])c2)N1`, for which half-maximal inhibition (IC50) required 49000 nM.
For `CC1CN(c2cccc(Cl)c2)NC(=O)N1` (centres undefined) the value was 2700 nM; for `O=C1NCCN(c2cccc(F)c2)N1`, 19000 nM.
For `O=C1NCCN(c2ccccn2)N1` the value was 26000 nM; for `CSc1cccc(N2CCNC(=O)N2)c1`, 14000 nM.
Consider `Cc1cccc(N2CCNC(=O)N2)c1`, for which the IC50 (usually the midpoint of a concentration-inhibition curve) turned out to be 15000 nM.
For `COCCOCC1CN(c2ccccc2)NC(=O)N1` (centres undefined) the value was 14000 nM.
With `COC1(c2cccc(COc3ccc4c(-c5ccccc5)c5c(cc4c3)C(=O)OC5)c2)CCOCC1` the figure was 14 nM; with `COc1ccc(C(=O)/C=C/c2ccc(O)c(O)c2)c(OC)c1`, 40 nM.
With `Nc1cccc(N2CCNC(=O)N2)c1` the figure was 178000 nM.
Compound `CC(C)(C)c1cc(C(=O)CCCC2CC2)cc2c1OCC2(C)C` yielded an IC50 of 68000 nM.
For the compound `CCCC(=O)c1cc(C(C)(C)C)c2c(c1)C(C)(C)CO2`, the half-inhibitory concentration (IC50) came out at 8500 nM.
For `CC1Cc2c(OCc3ccc(-c4ccccc4)cn3)ccc3c2c(c(CCOc2ccccc2CC(=O)O)n3Cc2cccc(F)c2)S1` (centres undefined) the value was 23 nM; for `CC(C)(C)c1cc(C(=O)CCCC2CC2)cc2c1OCCC2(C)C`, 8000 nM; for `CS(=O)(=O)c1ccc(C#CC(=O)c2ccccc2)cc1`, 1000 nM.
With `Cc1nccn1-c1ccc(Sc2cccc(C3(C(N)=O)CCOCC3)c2)cc1` the figure was 140 nM; with `NS(=O)(=O)c1ccc(N2N=C(C(F)(F)F)CC2c2c[nH]c3ccccc23)cc1` (centres undefined), 41000 nM; with `CC1(C)Cc2c(-c3ccccc3)c(-c3ccc([N+](=O)[O-])cc3)c(CC(=O)O)n2C1`, 1500 nM.
For `O=C(O)Cc1c(-c2ccc(Cl)cc2)c(-c2ccccc2)c2n1CCC2` the value was 1600 nM.
The compound `FC(F)(F)c1cccc(Nc2ccccc2-c2n[nH]c(=S)o2)c1` showed an IC50 of 770 nM.
Regarding `FC(F)(F)c1cccc(Nc2ccccc2-c2n[nH]c(=S)s2)c1`, the IC50 was 770 nM.
On to `CCN1CC/C(=C/c2cc(C(C)(C)C)c(O)c(C(C)(C)C)c2)S1(=O)=O`, for which 2500 nM corresponded to half-maximal inhibition (IC50).
`Cc1cc(C)cc(N2CCNC(=O)N2)c1`: the IC50 is 12000 nM.
Regarding `COc1cccc(N2CC(C)NC(=O)N2)n1` (centres undefined), the midpoint of inhibition, the IC50, lay at 5500 nM.
With `O=C1NCCN(c2ccccc2)N1` the figure was 21000 nM.
For the compound `CCCCC1CN(c2ccccc2)NC(=O)N1` (centres undefined), half-maximal inhibition (IC50) required 1500 nM.
Regarding `CS(=O)(=O)c1ccc(C#CC(=O)c2cccc(O)c2)cc1`, inhibition was half-maximal at 300 nM (IC50).
On to `COC1(c2cc(F)cc(OCCc3c[nH]c4ccccc34)c2)CCOCC1`, for which the half-maximal inhibitory concentration (IC50) worked out at 850 nM.
For `COC1(c2cc(F)cc(OCc3cc(-c4ccccc4)n(-c4ccc(S(C)(=O)=O)cc4)n3)c2)CCOCC1`, half-maximal inhibition (IC50) was put at 3 nM.
For `COc1ccc2c(c1)c(CCN(O)C(N)=O)c(C)n2C(=O)c1ccc(Cl)cc1` the value was 400 nM; for `NS(=O)(=O)c1ccc(C#Cc2ccc(=O)n(C(F)F)c2)cc1`, 3500 nM; for `CS(=O)(=O)c1ccc(-n2nc(C(F)(F)F)cc2-c2ccn(O)c(=O)c2)cc1`, 350 nM.
For `NS(=O)(=O)c1ccc(-n2nc(C(F)(F)F)cc2-c2ccn(O)c(=O)c2)cc1` the value was 4900 nM.
In turn, `NS(=O)(=O)c1cccc(C#Cc2ccc(=O)n(O)c2)c1` returned an IC50 of 15000 nM.
With `COc1ccc(-c2cnsc2-c2ccc(OC)cc2)cc1` the figure was 20000 nM; with `CS(=O)(=O)c1ccc(C#Cc2ccc(=O)n(C(F)F)c2)cc1`, 3300 nM.
`CS(=O)(=O)c1cccc(C#Cc2ccc(=O)n(C(F)F)c2)c1` showed an IC50 of 3200 nM.
In the case of `CCOC(=O)c1c(Cc2ccc(OC)cc2)[nH]c2c1cc(O)c1ccccc12`, half-maximal inhibition (IC50) was put at 150 nM.
For `CCOC(=O)c1c(Cc2cccc(Cl)c2)[nH]c2cc(-c3ccccc3)c(O)cc12` the value was 1200 nM; for `COC(=O)c1c(Nc2cccc(Cl)c2)[nH]c2ccc(O)cc12`, 300 nM.
With `NS(=O)(=O)c1ccccc1C#Cc1ccc(=O)n(O)c1` the figure was 10000 nM; with `COc1ccc(-c2ssc(=S)c2-c2ccc(OC)cc2)cc1`, 10000 nM.
With `Cc1ccc(-c2c(-c3ccc(S(C)(=O)=O)cc3)ssc2=S)cc1` the figure was 9000 nM.
As for `CCOC(=O)c1c(Cc2cccc(Cl)c2)[nH]c2ccc(O)cc12`, the IC50 was 2000 nM.
For `NS(=O)(=O)c1ccc(C#Cc2ccc(=O)n(O)c2)cc1` the value was 68000 nM; for `COc1ccc(-c2sncc2-c2ccc(C)cc2)cc1`, 8000 nM.
With `CS(=O)(=O)c1ccccc1C#Cc1ccc(=O)n(C(F)F)c1` the figure was 3400 nM; with `CC1Cc2c(CCc3ccc(-c4ccccc4)cn3)ccc3c2C(S1)C(CC(C)(C)Cc1nnn[nH]1)N3Cc1ccc(Cl)cc1` (centres undefined), 16 nM.
Turning to `CC1Cc2c(OCc3ccc(-c4ccccc4)cn3)ccc3c2C(S1)C(CC(C)(C)CC(=O)NS(C)(=O)=O)N3Cc1ccc(Cl)cc1` (centres undefined), the 50% inhibitory concentration (IC50) amounted to 36 nM.
For `CS(=O)(=O)Nc1ccc(Oc2ccc(F)cc2)s1` the value was 130 nM; for `O=C1NCCN(c2ccoc2-c2ccccc2)N1`, 4900 nM.
`COc1cc(/C=C\C=C\c2nc3ncccc3o2)ccc1O` displayed an IC50 of 370 nM.
With `O=C1NCCN(c2ncccc2-c2cccs2)N1` the figure was 8200 nM.
For `CC(C)(C)OC(=O)N1CCN(C(=O)CCCC2=CCc3ccccc32)CC1` the value was 740 nM; for `O=C1NCCN(c2cccnc2-c2ccccc2)N1`, 30000 nM; for `CCOC(=O)c1ccc2oc(/C=C/C=C\c3ccc(O)c(O)c3)nc2c1`, 20 nM.
For `NC(=O)C1(c2cccc(Sc3ccc(-n4cccc4)cc3)c2)CCOCC1` the value was 270 nM; for `Cc1ccc(-c2c(-c3ccc(S(C)(=O)=O)cc3)cn3c2CCC3)cc1`, 10000 nM; for `O=C(CC1=CC(Cc2ccc(Cl)c(Cl)c2)c2ccccc21)N1CCOCC1` (centres undefined), 870 nM.
In turn, `CC1=C(CCCC(=O)N2CCOCC2)c2cc(Cl)ccc2C1Cc1ccccc1` (centres undefined) yielded an IC50 of 950 nM.
For `CC1(C)CCC[C@@]2(C)C1CCC(C=O)[C@@H]2CC=C(C=O)C=O` (some centres undefined) the value was 7500 nM.
With `COC1(c2cc(F)cc(OCC3=NN(c4ccccc4)C(c4ccccc4)C3)c2)CCOCC1` (centres undefined) the figure was 570 nM; with `CC(C)(C)c1cc(C(=O)CCCC#N)cc2c1OCC2(C)C`, 6000 nM; with `COc1cc(/C=C\C=C\c2nc3ccccc3o2)ccc1O`, 330 nM.
With `CCOC(=O)c1ccc2nc(/C=C/C=C\c3ccc(O)c(OC)c3)oc2c1` the figure was 130 nM.
For `COc1cc(O)cc(/C=C/C=C/C(=O)NCCN2CCC(OC(c3ccccc3)c3ccccc3)CC2)c1`, the half-inhibitory concentration (IC50) stood at 150 nM.
With `O=C(CCCC1=CCc2ccccc21)N1CCOCC1` the figure was 2060 nM; with `CC(C)(C)c1cc(Cc2cccs2)cc2c1OCC2(C)C`, 68000 nM; with `COc1cc(/C=C\C=C\c2nc3ccc(CO)cc3o2)ccc1O`, 300 nM.
With `CC(=O)Nc1ccc(/C(=C/c2ccc(S(C)(=O)=O)cc2)C(=O)O)cc1` the figure was 110 nM; with `COC1(c2cccc(OCc3ccc4ccccc4c3)c2)CCOCC1`, 10 nM; with `N#Cc1cc(-c2ccoc2)c2ccc(OCc3cccc(C4(O)CCOCC4)n3)cc2c1`, 15 nM.
On to `O=C(O)/C=C/c1ccc(O)c(O)c1` [CAFFEIC ACID], for which it took 4000 nM to reach half-maximal inhibition (IC50).
For `Cc1ccc(-c2cc(C(F)(F)F)nn2-c2ccc(S(N)(=O)=O)cc2)cc1` [CELECOXIB] the value was 10000 nM.
`CC1(C)Cc2c(-c3ccccc3)c(-c3ccc(Cl)cc3)c(CC(=O)O)n2C1` [LICOFELONE]: the IC50 is 180 nM.
For `CS(=O)(=O)Nc1ccc([N+](=O)[O-])cc1OC1CCCCC1` [NS-398] the value was 10000 nM; for `C#CCCCC(=O)c1cc(C(C)(C)C)c(O)c(C(C)(C)C)c1` [TEBUFELONE], 3000 nM.
`COC1(c2cc(F)cc(OCc3ccc4c(ccc(=O)n4C)c3)c2)CCOCC1` [ZD-2138] yielded a concentration for half-maximal inhibition (IC50) of 330 nM.
